Laboratory results taken from patent publication US12611404B2, “Aza-aryl 1H-pyrazol-1-yl benzene sulfonamides” (ChemoCentryx, Inc., priority 2012, dated 2026).

Each compound was assayed against T1, CCR(9) (Homo sapiens, UniProt P51686) (assay: calcium mobilization assay (FLIPR, MOLT-4 cells, hTECK)). Conditions: read-out: CCR(9) Ca^2+.
T1 construct: CCR(9)-expressing cells such as T cell line MOLT-4 cells; host or cells: MOLT-4 cells
T1 sequence (P51686 1-369): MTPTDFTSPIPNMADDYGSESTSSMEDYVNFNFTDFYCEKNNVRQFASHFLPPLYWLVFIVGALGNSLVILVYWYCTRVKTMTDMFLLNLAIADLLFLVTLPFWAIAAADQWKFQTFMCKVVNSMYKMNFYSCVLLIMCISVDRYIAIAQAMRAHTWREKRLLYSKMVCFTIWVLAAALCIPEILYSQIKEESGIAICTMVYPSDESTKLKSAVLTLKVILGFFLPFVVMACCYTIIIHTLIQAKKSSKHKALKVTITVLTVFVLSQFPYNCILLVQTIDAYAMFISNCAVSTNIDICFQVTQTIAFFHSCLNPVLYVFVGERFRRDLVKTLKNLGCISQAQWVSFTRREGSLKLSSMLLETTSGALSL
Assay type: cell-based
Procedure: In calcium signaling assays used to determine the ability of a compound to interfere with binding between a chemokine receptor and a known chemokine ligand, chemokine receptor-expressing cells (CCR(9)-expressing cells such as T cell line MOLT-4 cells) are first incubated with a compound of interest, such as a potential chemokine antagonist, at increasing concentrations. The cell number can be from 10^5 to 5×10^6 cells per well in a 96-well microtiter plate. The concentration of the compound being tested may range from 0 to 100 μM. After a period of incubation (which can range from 5 to 60 minutes), the treated cells are placed in a Fluorometric Imaging Plate Reader (FLIPR®) (available from Molecular Devices Corp., Sunnyvale, CA) according to the manufacturer's instruction. The FLIPR® system is well known to those skilled in the art as a standard method of performing assays. The cells are then stimulated with an appropriate amount of the chemokine ligand (TECK for CCR(9)) at 5-100 nM final concentration, and the signal of intracellular calcium increase (also called calcium flux) is recorded. The efficacy of a compound as an inhibitor of binding between the […] and the ligand can be calculated as an IC50 (the concentration needed to cause 50% inhibition in signaling) or IC90 (at 90% inhibition). […]
A cytoplasmic calcium mobilization assay was used to determine the efficacy of potential receptor antagonists at blocking the signals mediated through chemokine receptors, such as CCR(9). This assay was routinely performed using the Fluorescent Imaging Plate Reader (FLIPR, Molecular Devices). […] The chemokine agonist (i.e., hTECK), prepared in HBSS at a 5× concentration of the previously determined EC^50 concentration, was added to each well and resulting changes in the fluorescent intensity, indicative of chemokine receptor-mediated signaling, were recorded on the FLIPR.

IC50, < 100 nM:
CCc1cc(NS(=O)(=O)c2ccc(C(C)(C)C)cc2)n(-c2cccc3ncccc23)n1
Cc1cc(NS(=O)(=O)c2ccc(C(C)(C)C)cc2Cl)n(-c2cccc3ncccc23)n1
Cc1cc(NS(=O)(=O)c2ccc(C(C)(C)C)cc2)n(-c2ccc3cccnc3c2)n1
